Source: the supplement of paper PMC11962398

Columns and labels:
BI-2493 [1] = compound: T1, C[C@H]1CNCCN1c1nccc(-c2noc3c2CCC[C@@]32CCCc3sc(N)c(C#N)c32)n1 [BI-2493]; experiment: 1 - AUC of viability dose-response curve (sensitivity) (fraction); higher = more sensitive; conditions: 5 days
Protocol: (§1)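 PRISM pooled barcoded cancer cell line viability screen (Broad Institute) with BI-2493 at 8 doses in threefold dilutions from 0.00457 to 10 µmol/L, 5-day treatment; curves fitted per cell line. IC50 is undefined (placeholder) for resistant lines. AUC is capped at 1, and sensitivity is reported as 1 − AUC.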

BI-2493 [2] = compound: T1, BI-2493; conditions: 5 days
Protocol: as §1

Test System	1 - AUC of viability dose-response curve (BI-2493 [1])	IC50 of cell viability (BI-2493 [2])
G361_SKIN	0.117	4.01 µM
G401_SOFT_TISSUE	0.17	> 10 µM
G402_SOFT_TISSUE	0.117	4.25 µM
G415_BILIARY_TRACT	0.245	2.22 µM
GAMG_CENTRAL_NERVOUS_SYSTEM	0.0333	8.24 µM
GB1_CENTRAL_NERVOUS_SYSTEM	0.00342	> 10 µM
GB2_BILIARY_TRACT	0.256	2.24 µM
GCIY_STOMACH	0.00163	> 10 µM
GCT27_TESTIS	0.128	> 10 µM
GCT_SOFT_TISSUE	0.0856	6.05 µM
GI1_CENTRAL_NERVOUS_SYSTEM	0.132	3.59 µM
GOS3_CENTRAL_NERVOUS_SYSTEM	0.0406	9.35 µM
GP5D_LARGE_INTESTINE	0.0606	> 10 µM
GRANTA519_HAEMATOPOIETIC_AND_LYMPHOID_TISSUE	0.0332	> 10 µM
GSS_STOMACH	0.19	3.3 µM
H4_CENTRAL_NERVOUS_SYSTEM	0.0861	5.48 µM
H103_UPPER_AERODIGESTIVE_TRACT	0.0476	7.57 µM
H157_UPPER_AERODIGESTIVE_TRACT	0.023	8.84 µM
H376_UPPER_AERODIGESTIVE_TRACT	0.243	5.33 µM
H413_UPPER_AERODIGESTIVE_TRACT	0.126	> 10 µM
HA1E_KIDNEY	0.223	> 10 µM
HAC2_OVARY	0.157	6.07 µM
HCA1_CERVIX	0.132	4.58 µM
HCC15_LUNG	0.0598	9.81 µM

Test System	1 - AUC of viability dose-response curve (BI-2493 [1])	IC50 of cell viability (BI-2493 [2])
HCC33_LUNG	0.161	9.27 µM
HCC44_LUNG	0.257	1.66 µM
HCC56_LARGE_INTESTINE	0.242	2.37 µM
HCC78_LUNG	0.164	7.51 µM
HCC515_LUNG	0.103	5.55 µM
HCC827_LUNG	0.0511	7.98 µM
HCC1143_BREAST	0.106	9.86 µM
HCC1195_LUNG	0.0206	9.21 µM
HCC1359_LUNG	0.00729	9.67 µM
HCC1395_BREAST	0.139	5.13 µM
HCC1419_BREAST	0.0762	7.93 µM
HCC1428_BREAST	0.106	5.47 µM
HCC1438_LUNG	< 0	> 10 µM
HCC1806_BREAST	0.0665	5.35 µM
HCC1937_BREAST	0.143	> 10 µM
HCC1954_BREAST	0.0754	5.1 µM
HCC2108_LUNG	0.0106	9.5 µM
HCC4006_LUNG	0.233	> 10 µM
HCSC1_CERVIX	0.0229	9.79 µM
HCT116_LARGE_INTESTINE	0.167	4.75 µM
HDMB03_CENTRAL_NERVOUS_SYSTEM	0.129	4.5 µM
HDMYZ_HAEMATOPOIETIC_AND_LYMPHOID_TISSUE	0.00919	9.62 µM
HDQP1_BREAST	0.0753	8.25 µM
HEC1A_ENDOMETRIUM	0.136	3.64 µM

Test System	1 - AUC of viability dose-response curve (BI-2493 [1])	IC50 of cell viability (BI-2493 [2])
HEC1B_ENDOMETRIUM	0.175	3.94 µM
HEC1_ENDOMETRIUM	0.131	5.02 µM
HEC6_ENDOMETRIUM	0.0397	8.15 µM
HEC59_ENDOMETRIUM	0.025	9.3 µM
HEC108_ENDOMETRIUM	0.123	5.68 µM
HEC116_ENDOMETRIUM	0.012	9.57 µM
HEC151_ENDOMETRIUM	0.0839	5.89 µM
HEC251_ENDOMETRIUM	0.282	3.15 µM
HEC265_ENDOMETRIUM	0.109	3.76 µM
HEL9217_HAEMATOPOIETIC_AND_LYMPHOID_TISSUE	0.173	4.27 µM
HEL_HAEMATOPOIETIC_AND_LYMPHOID_TISSUE	0.255	4.89 µM
HEP3B217_LIVER	0.0726	6.95 µM
HEPG2_LIVER	0.0929	4.13 µM
HEYA8_OVARY	0.117	3.57 µM
HGC27_STOMACH	0.158	3.92 µM
HH_HAEMATOPOIETIC_AND_LYMPHOID_TISSUE	0.0743	5.02 µM
HKA1_SKIN	0.111	4 µM
HKGZCC_BILIARY_TRACT	0.281	1.41 µM
HL60_HAEMATOPOIETIC_AND_LYMPHOID_TISSUE	0.089	> 10 µM
HLF_LIVER	0.0644	7.5 µM
HMC18_BREAST	0.15	4.86 µM
HOS_BONE	0.0734	7.39 µM
HOTHC_THYROID	0.00917	9.68 µM
HPAC_PANCREAS	0.312	1.1 µM

Test System	1 - AUC of viability dose-response curve (BI-2493 [1])	IC50 of cell viability (BI-2493 [2])
HPAFII_PANCREAS	0.396	0.582 µM
HPBALL_HAEMATOPOIETIC_AND_LYMPHOID_TISSUE	0.0862	4.23 µM
HS294T_SKIN	0.0895	5.34 µM
HS611T_HAEMATOPOIETIC_AND_LYMPHOID_TISSUE	< 0	> 10 µM
HS683_CENTRAL_NERVOUS_SYSTEM	0.0105	9.89 µM
HS729_SOFT_TISSUE	0.101	8.7 µM
HS766T_PANCREAS	0.108	6.84 µM
HS852T_SKIN	0.00841	9.99 µM
HS939T_SKIN	0.0542	8.03 µM
HS944T_SKIN	0.103	3.82 µM
HSC1_SKIN	0.111	4.81 µM
HSC2_UPPER_AERODIGESTIVE_TRACT	0.169	3.64 µM
HSC3_UPPER_AERODIGESTIVE_TRACT	0.138	5.44 µM
HSC5_SKIN	0.126	5.05 µM
HSKTC_OVARY	0.166	4.41 µM
HT3_CERVIX	0.17	5.97 µM
HT29_LARGE_INTESTINE	0.15	5.08 µM
HT55_LARGE_INTESTINE	0.195	4.03 µM
HT115_LARGE_INTESTINE	0.229	2.29 µM
HT144_SKIN	0.091	5.71 µM
HT1080_SOFT_TISSUE	0.209	3.19 µM
HT1197_URINARY_TRACT	0.0777	4.69 µM
HT1376_URINARY_TRACT	0.175	5.68 µM
HTMMT_ENDOMETRIUM	0.0985	5.79 µM
